Laboratory results published in patent US20260083704A1, “LXR MODULATORS WITH BICYCLIC CORE MOIETY FOR TREATING DYSLIPIDEMIAS” (OrsoBio, Inc., priority 2022, published 2026).

Experiments:
[1] = target: T1, GST-LXRβ ligand-binding domain (Homo sapiens, UniProt P55055); test: TR-FRETβ activity assay (NCoA3 coactivator peptide recruitment); format: biochemical; conditions: 1 μM 24(S)-25-epoxycholesterol prestimulation
T1 construct: amino acids 156-461; NP009052; made in house; host or cells: E. coli
T1 sequence (P55055 156-460 limits assumed): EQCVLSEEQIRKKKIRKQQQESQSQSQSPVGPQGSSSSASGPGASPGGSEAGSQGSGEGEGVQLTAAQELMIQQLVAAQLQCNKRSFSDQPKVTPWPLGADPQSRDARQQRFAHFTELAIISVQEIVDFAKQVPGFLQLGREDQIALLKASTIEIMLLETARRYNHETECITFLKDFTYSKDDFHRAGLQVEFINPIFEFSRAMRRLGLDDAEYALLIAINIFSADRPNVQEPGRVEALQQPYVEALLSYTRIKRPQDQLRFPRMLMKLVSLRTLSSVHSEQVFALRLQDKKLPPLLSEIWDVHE
Protocol: Recombinant GST-LXRβ ligand-binding domain (LBD; amino acids 156-461; NP009052; SEQ ID NO:4) was expressed in E. coli and purified via gluthatione-sepharose affinity chromatography. N-terminally biotinylated NCoA3 coactivator peptide (SEQ ID NO:7) was chemically synthesized (Eurogentec). Assays were done in 384 well format (final assay volume of 25 μL/well) in a Tris/HCl buffer (pH 6.8) containing KCl, bovine serum albumin, Triton-X-100 and 1 μM 24(S)-25-epoxycholesterol as LXR-prestimulating agonist. Assay buffer was provided and test articles (potential LXR inverse agonists) were titrated to yield final assay concentrations of 50 μM, 16.7 μM, 5.6 μM, 1.9 μM, 0.6 μM, 0.2 μM, 0.07 μM, 0.02 μM, 0.007 μM, 0.002 μM with one vehicle control. Finally, a detection mix was added containing anti GST-Tb cryptate (CisBio; 610SAXLB) and Streptavidin-XL665 (CisBio; 610SAXLB) as fluorescent donor and acceptor, respectively, as well as the coactivator peptide and LXRβ-LBD protein (SEQ ID NO:4). The reaction was mixed thoroughly, equilibrated for 1 h at 4° C. and vicinity of LXRβ and coactivator peptide was detected by measurement of fluorescence in a VictorX4 multiplate reader (PerkinElmer Life Science) using 340 nm as excitation and 615 and 665 nm as emission wavelengths. Assays were performed in triplicates.
240 mM KCl, 1 μg/μL BSA, 0.002% Triton-X-100, […] anti GST-Tb cryptate, 2.5 ng/μL Streptavidin-XL665, coactivator peptide (400 nM), LXRβ protein (530 μg/mL, i.e. 76 nM).

[2] = target: T2, LXRβ (Homo sapiens, UniProt P55055); test: LXR Gal4 reporter transient transfection assay (mammalian two-hybrid, HEK293), LXRβ; format: cell-based; set-up: LXRβ (amino acids 156-461); expressed in transfected cells; host or cells: HEK293; conditions: full length (FL) LXRβ, HEK293; read-out: FL-M2H Gal4β
T2 sequence (P55055 1-460): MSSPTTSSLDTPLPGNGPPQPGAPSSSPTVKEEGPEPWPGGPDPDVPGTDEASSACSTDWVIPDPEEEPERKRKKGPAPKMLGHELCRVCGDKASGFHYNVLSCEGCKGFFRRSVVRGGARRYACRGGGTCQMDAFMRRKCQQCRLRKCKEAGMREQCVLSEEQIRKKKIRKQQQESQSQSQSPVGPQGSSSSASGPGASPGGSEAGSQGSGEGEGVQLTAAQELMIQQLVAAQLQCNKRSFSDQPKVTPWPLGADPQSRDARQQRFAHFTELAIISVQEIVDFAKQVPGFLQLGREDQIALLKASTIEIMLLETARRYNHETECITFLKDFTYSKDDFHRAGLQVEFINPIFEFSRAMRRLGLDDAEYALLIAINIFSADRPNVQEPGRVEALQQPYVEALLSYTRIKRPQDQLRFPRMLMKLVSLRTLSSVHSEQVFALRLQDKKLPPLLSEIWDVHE
Protocol: LXRα and LXRβ activity status was determined via detection of interaction with coactivator and corepressor proteins in mammalian two-hybrid experiments (M2H). For this, via transient transfection the full length (FL) proteins of LXRα (amino acids 1-447; NP005684; SEQ ID NO:1) or LXRβ-(amino acids 1-461; NP009052; SEQ ID NO:2) or the ligand-binding domains (LBD) of LXRα (amino acids 155-447 SEQ ID NO:3) or LXRβ (amino acids 156-461; SEQ ID NO:4) were expressed from pCMV-AD (Stratagene) as fusions to the transcriptional activation domain of NFkB. As cofactors, domains of either the steroid receptor coactivator 1 (SRC1; amino acids 552-887; SEQ ID NO:5) or of the corepressor NCoR (amino acids 1906-2312; NP006302; SEQ ID NO:6) were expressed as fusions to the DNA binding domain of the yeast transcription factor GAL4 (from pCMV-BD; Stratagene). Interaction was monitored via activation of a coexpressed Firefly Luciferase Reporter gene under control of a promoter containing repetitive GAL4 response elements (vector pFRLuc; Stratagene). Transfection efficiency was controlled via cotransfection of constitutively active pRL-CMV Renilla reniformis luciferase reporter (Promega). HEK293 cells were grown in minimum essential medium (MEM) with 2 mM L-glutamine and Earle's balanced salt solution supplemented with 8.3% fetal bovine serum, 0.1 mM non-essential amino acids, 1 mM sodium pyruvate, at 37° C. in 5% CO2. 3.5×10^4 cells/well were plated in 96-well cell culture plates in growth medium supplemented with 8.3% fetal bovine serum for 16-20 h to ˜90% confluency. For transfection, medium was taken off and LXR and cofactor expressing plasmids as well as the reporter plasmids are added in 30 μL OPTIMEM/well including polyethylene-imine (PEI) as vehicle. Typical amounts of plasmids transfected/well: pCMV-AD-LXR (5 ng), pCMV-BD-cofactor (5 ng), pFR-Luc (100 ng), pRL-CMV (0.5 ng). Compound stocks were prepared in DMSO, prediluted in MEM to a total volume of 120 μL, and added 4 h after addition of the transfection mixture (final vehicle concentration not exceeding 0.2%). Cells were incubated for additional 16 h, lysed for 10 min in 1×Passive Lysis Buffer (Promega) and Firefly and Renilla luciferase activities were measured sequentially in the same cell extract using buffers containing D-luciferine and coelenterazine, respectively. Measurements of luminescence were done in a BMG-luminometer.
The potencies of Compound 21/3 and its analog, Compound pre-6/3, against LXRα and LXRβ were evaluated in biochemical binding assays, cellular mammalian two-hybrid (M2H) interaction assays evaluating nuclear receptor co-repressor (NCOR) recruitment, and cellular reporter assays evaluating transcriptional activity (Table 5).

| Compound | EC50 [1] [nM] | EC50 [2] [nM] |
| --- | --- | --- |
| COc1ccc2c(c1)c(-c1ccsc1C#N)c(-c1cccs1)n2S(=O)(=O)c1ccc(Cl)cc1 [1/39] | > 10000 | – |
| COC(=O)c1ccc(-c2cccc(-c3c(-c4c(C)cccc4C#N)c4cc(F)ccc4n3S(=O)(=O)c3ccc(C(F)F)cc3)c2)c(Cl)c1 [1/122] | 100 to 1000 | < 100 |
| N#Cc1cccc(C#N)c1-c1c(-c2cccc(Br)c2)n(S(=O)(=O)c2ccc(C(F)F)cc2)c2ccc(F)cc12 [1/139] | 100 to 1000 | < 100 |
| Cc1ccc(S(=O)(=O)n2c(-c3cccc(-c4ccc(CN)cc4Cl)c3)c(-c3ccsc3C#N)c3cc(F)ccc32)cc1 [2/1] | 100 to 1000 | 100 to 1000 |
| Cc1ccc(S(=O)(=O)n2c(-c3cccc(-c4ccc(C(C)(C)N)cc4Cl)c3)c(-c3ccsc3C#N)c3cc(F)ccc32)cc1 [2/2] | 100 to 1000 | 100 to 1000 |
| Cc1ccc(S(=O)(=O)n2c(-c3cccc(-c4cc(F)c(CO)c(S(C)(=O)=O)c4)c3)c(-c3ccsc3C#N)c3cc(F)ccc32)cc1 [2/16] | < 100 | < 100 |
| Cc1ccc(S(=O)(=O)n2c(-c3cccc(-c4ccc(C(C)(C)C(=O)O)c(S(C)(=O)=O)c4)c3)c(-c3ccsc3C#N)c3cc(F)ccc32)cc1 [2/18] | 100 to 1000 | < 100 |
| Cc1ccc(S(=O)(=O)n2c(-c3cccc(C4(C)CC4C(=O)O)c3)c(-c3ccsc3C#N)c3cc(F)ccc32)cc1 (centres unmarked) [3/1] | 100 to 1000 | 100 to 1000 |
| Cc1ccc(S(=O)(=O)n2c(-c3cccc(C4(C)CC4C(=O)O)c3)c(-c3ccsc3C#N)c3cc(F)ccc32)cc1 (centres unmarked) [3/2] | 1000 to 10000 | < 100 |
| COc1sccc1-c1c(-c2cccc(N3CC(C(=O)O)C3)c2)n(S(=O)(=O)c2ccc(C)cc2)c2ccc(F)cc12 [3/3] | 1000 to 10000 | 100 to 1000 |
| Cc1ccc(S(=O)(=O)n2c(-c3cccc(N4CC(C(=O)O)C4)c3)c(-c3ccsc3C(F)F)c3cc(F)ccc32)cc1 [3/4] | 100 to 1000 | < 100 |
| Cc1ccc(S(=O)(=O)n2c(-c3cccc(N4CC(C(=O)O)C4)c3)c(-c3ccsc3C=O)c3cc(F)ccc32)cc1 [3/5] | 100 to 1000 | 100 to 1000 |
| COCc1sccc1-c1c(-c2cccc(N3CC(C(=O)O)C3)c2)n(S(=O)(=O)c2ccc(C)cc2)c2ccc(F)cc12 [3/6] | 1000 to 10000 | 100 to 1000 |
| Cc1ccc(S(=O)(=O)n2c(-c3cccc(N4CC(C(=O)O)C4)c3)c(-c3ccsc3/C=N/O)c3cc(F)ccc32)cc1 [3/7] | 1000 to 10000 | < 100 |
| CCc1ccc(S(=O)(=O)n2c(-c3cccc(N4CC(C(=O)O)C4)c3)c(-c3ccsc3C#N)c3cc(F)ccc32)cc1 [3/10] | 100 to 1000 | < 100 |
| N#Cc1sccc1-c1c(-c2cccc(N3CC(C(=O)O)C3)c2)n(S(=O)(=O)c2ccc(OC(F)F)cc2)c2ccc(F)cc12 [3/11] | 1000 to 10000 | – |

| Compound | EC50 [1] [nM] | EC50 [2] [nM] |
| --- | --- | --- |
| N#Cc1sccc1-c1c(-c2cccc(N3CC(C(=O)O)C3)c2)n(S(=O)(=O)c2ccc3c(c2)CCC3)c2ccc(F)cc12 [3/12] | 100 to 1000 | < 100 |
| N#Cc1sccc1-c1c(-c2cccc(N3CC(C(=O)O)C3)c2)n(S(=O)(=O)c2ccc3ccccc3c2)c2ccc(F)cc12 [3/13] | 1000 to 10000 | < 100 |
| Cc1ccc(S(=O)(=O)n2c(-c3cccc(N4CC(C(=O)O)C4)c3)c(-c3ccsc3C#N)c3cc(F)ccc32)c(F)c1 [3/14] | 1000 to 10000 | 100 to 1000 |
| Cc1ccc(S(=O)(=O)n2c(-c3cccc(S(=O)(=O)CC(=O)O)c3)c(-c3ccsc3C#N)c3ccccc32)cc1 [3/15] | 1000 to 10000 | – |
| CC1CCN(S(=O)(=O)n2c(-c3cccc(-c4ccc(C(=O)O)cc4Cl)c3)c(-c3ccsc3C#N)c3cc(F)ccc32)CC1 [3/21] | 100 to 1000 | < 100 |
| [2H]c1c([2H])c(S(=O)(=O)n2c(-c3cccc(-c4ccc(C(=O)O)cc4Cl)c3)c(-c3ccsc3C#N)c3cc(F)ccc32)c([2H])c([2H])c1C([2H])([2H])[2H] [3/22] | < 100 | < 100 |
| Cc1cc(S(=O)(=O)n2c(-c3cccc(-c4ccc(C(=O)O)cc4Cl)c3)c(-c3ccsc3C#N)c3cc(F)ccc32)ccc1F [3/23] | 100 to 1000 | < 100 |
| Cc1ccc(S(=O)(=O)n2c(-c3cccc(N4CC(C(=O)O)C4)c3)c(-c3sccc3C#N)c3cc(F)ccc32)cc1 [3/25] | 1000 to 10000 | < 100 |
| CC(O)(C(=O)O)c1ccc(-c2cccc(-c3c(-c4c(C#N)cccc4C#N)c4cc(F)ccc4n3S(=O)(=O)c3ccc(C(F)F)cc3)c2)c(Cl)c1 (centres unmarked) [11/60] | – | < 100 |
| N#Cc1sccc1-c1c(-c2cccs2)n(S(=O)(=O)c2ccc(Cl)cc2)c2cc(OCC(=O)O)ccc12 [15/3] | > 10000 | – |
| N#Cc1sccc1-c1c(-c2ccccc2)n(S(=O)(=O)c2ccc(CC(=O)O)cc2)c2ccccc12 [27/1] | 1000 to 10000 | – |
| N#Cc1sccc1-c1c(-c2ccccc2)n(S(=O)(=O)c2ccc(-c3cccc(C(=O)O)c3)cc2)c2ccccc12 [27/2] | 1000 to 10000 | – |
| N#Cc1sccc1-c1c(-c2ccccc2)n(S(=O)(=O)c2ccc(CC(=O)O)s2)c2ccccc12 [27/3] | > 10000 | – |
| Cn1cnc(S(=O)(=O)n2c(-c3cccc(C4CC4C(=O)O)c3)c(-c3ccsc3C#N)c3ccccc32)c1 (centres unmarked) [30/10] | > 10000 | – |
| Cc1cccc(C#N)c1-c1c(-c2cccc(-c3ccc(C(=O)O)cc3Cl)c2)n(S(=O)(=O)c2ccc(C(F)F)cc2)c2ccc(F)cc12 [41/1, 2-chloro-3′-(3-(2-cyano-6-methylphenyl)-1-((4-(difluoro-methyl)phenyl)sulfonyl)-5-fluoro-1H-indol-2-yl)-[1,1′-biphenyl]-4-carboxylic acid] | < 100 | – |
| N#Cc1sccc1-c1c(-c2cccs2)n(S(=O)(=O)c2ccc(Cl)cc2)c2cc(C(=O)O)ccc12 [Compound 19] | > 10000 | – |
